# Test results published in patent US4110322A, “Peptide derivatives and pharmaceutical compositions containing same” (Akzona Incorporated, priority 1976, dated 1978).
# Where no end group is shown, it is not given here. [ ]: non-standard residue; d: D form.
# Key:
# [1] = tested on: extinction of conditioned flight behaviour; conditions: cited from earlier work; for retardation of the extinction of conditioned flight behaviour: European Journal of Pharmacology 2, 14 (1967)
# [2] = tested on: extinction of conditioned flight behaviour; assay: inhibition (retardation) of the extinction of conditioned flight behaviour; psychopharmacological activity; format: in vivo; conditions: for Potency Ratio with Respect to 4-10 ACTH: 4-10 ACTH = 1
# From the text: This invention relates to the field of pharmaceutical compounds, and to the sub-field of psychopharmacologically active compounds. The compounds in question show an inhibition of the extinction of conditioned flight behaviour, as a result of which they are eminently suitable for the treatment of mental disorders in which a stimulation of the cerebral function is desired, such as in case of senility. The invention further relates to pharmaceutical compositions containing these peptide compounds or their derivatives where the latter are an active constituent.
Substance,Potency Ratio with Respect to 4-10 ACTH ([2]; Table I),Potency Ratio with Respect to 4-10 ACTH ([2]; Table II),other results
"4-10 ACTH: the peptide containing the amino-acid sequence 4-10 from ACTH (MEHFRWG; Corticotropin; UniProt P01189 141-147, looked up, fragment)",–,–,retardation of the extinction of conditioned flight behaviour [1]: as active as ACTH itself
"ACTH: natural adrenocorticotropic hormone (SYSMEHFRWGKPVGKKRRPVKVYPNGAEDESAEAFPLEF; Corticotropin; UniProt P01189 138-176, looked up)",–,–,retardation of the extinction of conditioned flight behaviour [1]: retard the extinction
FRWGKPVGKK [7-16 ACTH],1,1,–
F[dK]FGKPVGK,–,1,–
F[dK]FGKPVGKK,100,100,–
F[dK]FG[dK]PVGKK,–,"10,000",–
H-L-Met (→ O)-L-Glu-L-His-L-Phe-D-Lys-L-Phe-OH,–,–,"activity relative to the unchanged 4-9 ACTH ([1]; psychopharmacological activity, peptide of the earlier U.S. patents): about 1000 times"
Phe-Arg-Trp [7-9 ACTH],0.1,–,–
Phe-[dK]-Phe,0.1,–,"psychopharmacological activity (in words) ([2]; in vivo): some psychopharmacological activity, although in a latent form"
